Measured values from US10683272B2 (THE JOHNS HOPKINS UNIVERSITY, priority 2014, dated 2020).
Like-named read-outs stand apart in the source and are kept apart here. Where a SMILES comes first, the peptide text is derived from it. [ ]: non-standard residue; d: D form. The star is where a group is joined. ξ: configuration not given here. X1 = O=C(O)CC[C@H](NC(=O)N[C@@H](CCCCNC(=O)CCCCCCC(=O)*)C(=O)O)C(=O)O; DOTA = O=C(O)CN1CCN(CC(=O)O)CCN(CC(=O)*)CCN(CC(=O)O)CC1; ξF = NC(Cc1ccccc1)C(=O)O

Experiments:
[1] = target: PSMA (Homo sapiens, UniProt Q04609); experiment: fluorescence-based PSMA inhibition assay (Example 1); assay type: biochemical
Sequence of PSMA (Q04609 whole entry): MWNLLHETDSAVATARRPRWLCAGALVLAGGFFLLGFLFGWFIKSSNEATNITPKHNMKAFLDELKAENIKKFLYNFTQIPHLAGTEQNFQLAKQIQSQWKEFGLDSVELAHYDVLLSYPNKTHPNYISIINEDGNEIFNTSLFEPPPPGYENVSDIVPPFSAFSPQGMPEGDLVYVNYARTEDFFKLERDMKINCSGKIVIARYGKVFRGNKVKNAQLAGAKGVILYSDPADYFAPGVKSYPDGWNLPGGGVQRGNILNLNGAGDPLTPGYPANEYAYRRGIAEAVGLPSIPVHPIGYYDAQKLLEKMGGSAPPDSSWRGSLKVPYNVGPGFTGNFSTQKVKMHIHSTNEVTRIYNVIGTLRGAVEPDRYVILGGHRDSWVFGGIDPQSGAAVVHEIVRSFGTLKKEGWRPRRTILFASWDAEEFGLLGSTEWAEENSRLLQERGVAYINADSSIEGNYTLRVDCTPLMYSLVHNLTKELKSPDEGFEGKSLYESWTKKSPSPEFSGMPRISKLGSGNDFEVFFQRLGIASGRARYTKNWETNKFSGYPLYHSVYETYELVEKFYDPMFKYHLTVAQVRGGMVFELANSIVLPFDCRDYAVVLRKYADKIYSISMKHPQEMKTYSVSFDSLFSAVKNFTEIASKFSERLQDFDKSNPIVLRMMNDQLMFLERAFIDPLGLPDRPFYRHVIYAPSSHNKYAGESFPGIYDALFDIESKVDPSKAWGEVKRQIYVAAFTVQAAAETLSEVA

[2] = test system: PSMA+ PC3 PIP and PSMA− PC3 flu cells; experiment: T1-weighted MR imaging of cell pellets; assay type: cell-based, human; conditions: PSMA+ PC3 PIP vs PSMA− PC3 flu cell pellets
Experimental: FIG. 4A through FIG. 4C show T1 contrast enhancement generated by Gd3 in an isogenic human PC3 prostate cancer cell pair, PSMA+ PIP and PSMA− flu cells; (A) Color coded T1 maps of PIP and flu cells. Relaxation rates were determined at 25° C. at 9.4 T; (B) Quantification of T1 changes (ΔT1) in PIP and flu cells (n=4, P<0.05) following treatment with Gd3; (C) cellular uptake of Gd3 in PIP and flu cells.
(§1) When imaged at 9.4 T and 25° C., solution phantoms indicated r1 relaxivities in PBS that vary between 3.0 and 6.2 mM^−1 s^−1 per Gd(III) and between 3.0 and 12.5 mM-1 s-1 per contrast agent (Table 1). As expected, Gd1 has the lowest relaxivity followed by Gd2 and Gd3 at 25° C. To determine selectivity and specificity of the agents, human prostate cancer cells genetically modified to express high amounts of PSMA (PC3 PIP) and the corresponding wild-type, PSMA-non-expressing cells (PC3 flu) were selected as negative control (Banerjee, Angew., 2001). […] Enhancement and T1 measurements by means of MRI of the cell pellets in the presence and absence of 50 μM Gd3 indicated higher enhancement and difference in T1 relaxation rates, ΔR1 between Gd3 treated PIP cells and the control PIP cells as compared to the Gd3-treated flu cells and the control flu control cells, after removal of the Gd3 from the cell system by washing with standard medium (FIG. 4B and FIG. 4C).

[3] = test system: PSMA+ PC3 PIP cells; experiment: ICP-MS analysis of Gd in cell pellets; assay type: cell-based, human
Text: Thus, the difference between ΔR1 of the PIP cells and that of the flu cells reflects the change due to the specific Gd3 binding to PSMA in the PIP cells.

[4] = test system: PSMA+ PC3 PIP cells; experiment: cell internalization assay (ICP-MS); assay type: cell-based, human
Experimental: FIG. 6A and FIG. 6B show the % ID of Gd3 cell surface bound (A) and internalized (B) at 1, 4 and 24 h;
Moreover, slightly higher non-specific uptake was associated with Gd2 in PSMA− PC3 flu cells, which might be related to the lower K1 value of this agent compared to Gd1. As a further check on cellular uptake and internalization, a dual modality Gd monomeric contrast agent labeled with Rhodamine-Red™-X was prepared to confirm the PSMA-mediated internalization of this class of contrast agents (FIG. 5D).
A time-dependent internalization study was performed for Gd3 (FIG. 6A and FIG. 6B) after 1, 4 and 24 h of incubation. […] A similar amount of Gd (˜33-37% ID) was associated with the cell membrane at those same time-points.

[5] = r1 relaxivity of solution phantoms at 9.4 T and 25° C.; assay type: physicochemical; conditions: for r1 relaxivity, ionic (per Gd(III)) / r1 relaxivity, molecular (per contrast agent): 9.4 T, 25° C., PBS; for r1 relaxivity: column T1 of Table 1
Experimental: as §1

[6] = test system: PSMA+ PC-3 PIP and PSMA− PC-3 flu tumors; experiment: small animal PET-CT imaging; assay type: in vivo, NOD/SCID mice; conditions: 2 h post-injection
Experimental: Mice (n=3 for ^86Y-4 or ^86Y-6 and n=2 for ^86Y-5) were injected via the tail vein with 3.33-6.21 MBq (90-168 μCi) of radiotracer formulated in 100 μL of saline at pH ˜7. […] At different time points, anesthetized individual mice were placed in the prone position on the scanner gantry and secured with medical tape while the anesthesia flow rate was increased to 0.8 L/min. Images were reconstructed using the FORE/2D-OSEM method (two iterations, 16 subsets) and included correction for radioactive decay, scanner dead time, and scattered radiation. Partial volume correction (PVC) was not performed. After each PET scan, a CT scan was acquired for anatomic co-registration. To facilitate PET and CT image co-registration, a special animal bed was employed which fits both the PET and CT scanners. The animals were under anesthesia and immobilized when moving between scanners as well as during both scans. The reconstructed PET and CT images were then manually co-registered through rigid transformation, by aligning natural landmarks (such as the animal limbs and the bed contour) using the AMIDE software (from sourceforge.net/amide).
Dynamic, whole-body PET and CT images were acquired on an eXplore VISTA small-animal PET (GE Healthcare, Little Chalfont, Buckinghamshire, UK) and an X-SPECT small SPECT/CT system (Gamma Medica Ideas, Northridge, Calif.), respectively.

[7] = test system: PSMA+ PC3 PIP and PSMA− PC3 flu tumor xenografts; assay type: in vivo
[8] = test system: PSMA− PC3 flu cells; experiment: cell viability, MTS assay; assay type: cell-based, human; conditions: 24 h, up to Gd(III) concentration of 1 mM
Experimental: Prior to evaluating Gd3 for live mouse imaging, its biocompatibility was examined using a cell proliferation assay. Various concentrations of Gd3 were incubated with PSMA+PC3 PIP and PSMA− PC3 flu cells, for 24 h. […] However, Gd(III) concentrations of >1 mM affected PSMA+PC3 PIP cell viability (FIG. 8). The observed level of PSMA+PC3 PIP cell death may be attributable to high cell internalization of Gd3, and the long incubation time employed (24 h).

[9] = test system: PSMA+ PC3 PIP cells; experiment: cell viability, MTS assay; assay type: cell-based, human; conditions: 24 h
[10] = PSMA+ PC3 PIP cells, 4 h incubation
[11] = 0.05 mmol/Kg i.v., first 20 min after injection

Molecule: O=C([O-])CN1CCN(CC(=O)[O-])CCN(CC(=O)NCCCCC(NC(=O)CN2CCN(CC(=O)[O-])CCN(CC(=O)[O-])CCN(CC(=O)[O-])CC2)C(=O)NC(CCCCNC(=O)CCCCCCC(=O)NCCCC[C@H](NC(=O)N[C@@H](CCC(=O)O)C(=O)O)C(=O)O)C(=O)O)CCN(CC(=O)[O-])CC1.[Gd+3].[Gd+3] (stereo partly drawn) [Gd2, (30S,34S)-2,9,17,24,32-pentaoxo-1-(4,7,10-tris(carboxymethyl)-1,4,7,10-tetraazacyclododecan-1-yl)-8-(2-(4,7,10-tris(carboxymethyl)-1,4,7,10-tetraazacyclododecan-1-yl)acetamido)-3,10,16,25,31,33-hexaazahexatriacontane-11,30,34,36-tetracarboxylic acid, digadolinium(III) salt]
- Ki [1]: 18.2 nM
- T1-weighted MR contrast of cell pellets [2]: did not demonstrate T1-weighted MR contrast or changes in R1
- estimated intracellular Gd(III) concentration [3]: ~12.5 µM
- percent of incubated dose associated with the cell surface [4, 10]: 3.51±1.32 % ID
- percent of incubated dose internalized [4, 10]: 21.63±3.51 % ID
- r1 relaxivity, ionic (per Gd(III)) [5]: 6.2 mM⁻¹ s⁻¹
- r1 relaxivity, molecular (per contrast agent) [5]: 12.5 mM⁻¹ s⁻¹
- r1 relaxivity [5]: 5.44 mM⁻¹ s⁻¹

Molecule: O=C([O-])CN1CCN(CC(=O)[O-])CCN(CC(=O)NC(Cc2ccccc2)C(=O)NC(Cc2ccccc2)C(=O)NC(Cc2ccccc2)C(=O)N[C@@H](CCCCNC(=O)CCCCCCC(=O)NCCCC[C@H](NC(=O)N[C@@H](CCC(=O)O)C(=O)O)C(=O)O)C(=O)O)CCN(CC(=O)[O-])CC1.[86Y+3] (some centres unmarked) [^86Y-5] ({DOTA}-[ξF][ξF][ξF]K(X1)-OH)
- non-specific accumulation on PET/CT [6]: non-specific accumulation in the gastrointestinal tract

Molecule: (3S,7S)-5,13,20,28-tetraoxo-32-(2,4,6-tris(1-(2-hydroxy-3-(4,7,10-tris(carboxymethyl)-1,4,7,10-tetraazacyclododecan-1-yl)propyl)-1H-1,2,3-triazol-4-yl)phenoxy)-4,6,12,21,27-pentaazadotriacontane-1,3,7,22-tetracarboxylic acid, trigadolinium(III) salt [Gd3]
- Ki [1]: 7.19 nM
- T1-weighted MR contrast of cell pellets [2]: significant MR contrast enhancement in PSMA+PC3 PIP cells
- contrast enhancement at PIP tumor ([7]; 0.05 mmol/Kg i.v., 40 min post-injection): 36%
- lowering of T1 value, PIP tumor [7, 11]: 0.57 s
- lowering of T1 value, PSMA flu tumor [7, 11]: 0.63 s
- lowering of T1 value, muscle [7, 11]: 0.261 s
- contrast enhancement at PIP tumor ([7]; 0.05 mmol/Kg i.v., until 1.5 h post injection): 30%
- highest contrast enhancement, PSMA− PC3 flu tumors ([7]; 0.06 mmol/kg i.v., 20 min post-injection): ~24%
- enhancement in R1, PSMA+ PC3 PIP tumor ([7]; 0.06 mmol/kg i.v., 190 min after injection): 24%
- ΔR1, PSMA− PC3 flu tumors ([7]; 0.06 mmol/kg i.v., after 40 min): < 20%
- average enhancement in R1 values, PSMA+ PC3 PIP tumor ([7]; 0.06 mmol/kg i.v., first 40 to 60 min): 36%
- minimum T1 value of PSMA+ PC3 PIP tumor ([7]; 0.06 mmol/kg i.v., first 40 to 60 min, n=4): 1,819±76 ms
- enhancement in R1, PSMA+ PC3 PIP tumor ([7]; 0.06 mmol/kg i.v., until 90 min): 29%
- cell viability [8]: ~90%
- estimated intracellular Gd(III) concentration [3]: ~22.82 µM
- amount of Gd associated with the cell membrane ([4]; PSMA+ PC3 PIP cells, 1, 4 and 24 h): 33-37 % ID
- percent of incubated dose internalized ([4]; PSMA+ PC3 PIP cells, 1 h incubation): 28.30±0.47 % ID
- percent of incubated dose internalized [4, 10]: 39.92±3.59 % ID
- percent of incubated dose internalized ([4]; PSMA+ PC3 PIP cells, 24 h incubation): ~89.69±3.90 % ID
- Gd(III) concentrations that affected cell viability [9]: > 1 mM
- r1 relaxivity, ionic (per Gd(III)) [5]: 3.3 mM⁻¹ s⁻¹
- r1 relaxivity, molecular (per contrast agent) [5]: 9.81 mM⁻¹ s⁻¹
- r1 relaxivity [5]: 12.47 mM⁻¹ s⁻¹
